Common to all, as to assay: Test B pre-/postemergence plant response
What all share (type): in vivo

In experiment [1] the test system is large (Lg) crabgrass (Digitaria sanguinalis). To be noted: Digitaria sanguinalis, 240 h, read-out: Plant response rating, Crabgrass, Large; for pest or weed control at 125 g/ha: 125 g ai/ha; for pest or weed control at 500 g/ha: 500 g ai/ha; for pest or weed control at 1000 g/ha: 1000 g ai/ha. The method, boiled down:
(§1)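 Scoring used a 0–100 scale (100 = complete control) by visual comparison with untreated plants after approximately 10 days in the greenhouse. Compounds, in surfactant-containing non-phytotoxic solvent, were sprayed onto soil at planting or onto 2–10 cm seedlings.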

Experiment [2] relates to velvetleaf (Abutilon theophrasti). Conditions: Abutilon theophrasti, 240 h, read-out: Plant response rating, Velvetleaf; for pest or weed control at 125 g/ha: 125 g ai/ha; for pest or weed control at 500 g/ha: 500 g ai/ha; for pest or weed control at 1000 g/ha: 1000 g ai/ha. The method, boiled down: as §1
The test system of experiment [3] is morningglory (Ipomoea spp.). To be noted: Ipomoea, 240 h, read-out: Plant response rating, Morningglory; for pest or weed control at 125 g/ha: 125 g ai/ha; for pest or weed control at 500 g/ha: 500 g ai/ha; for pest or weed control at 1000 g/ha: 1000 g ai/ha. The method, boiled down: as §1
Setting [4] is: post-emergence, postemergence, 0 to 100 scale, 0 no effect, 100 complete control.
[5] abbreviates: post-emergence, Postemergence, 0 to 100 scale (0 no effect, 100 complete control).
[6] abbreviates: pre-emergence, Preemergence, 0 to 100 scale where 0 is no effect and 100 is complete control.
Where [7] appears, read: pre-emergence, Preemergence, 0 to 100 scale (0 no effect, 100 complete control).

Like-named read-outs stand apart in the source and are kept apart here.

As to `Clc1ccc(-c2c(Cl)cccc2Oc2ncc(Cl)cn2)nc1` [Compound 23, 5-chloro-2-[3-chloro-2-(5-chloro-2-pyridinyl)phenoxy]pyrimidine], the pest or weed control at 125 g/ha in experiment [1] (setting [4]) came out at 10%; in experiment [1] (setting [6]), 40%; in experiment [2] (setting [4]), 40%; in experiment [2] (setting [6]), 10%; in experiment [3] (setting [4]), 20%; in experiment [3] (setting [6]), 0%. The pest or weed control at 500 g/ha in experiment [1] (setting [5]) was found to be 50%; in experiment [1] (setting [7]), 80%; in experiment [2] (setting [5]), 70%; in experiment [2] (setting [7]), 50%; in experiment [3] (setting [5]) it was 40%; in experiment [3] (setting [7]), 0%. Further, the pest or weed control at 1000 g/ha worked out at 60% in experiment [1] (setting [5]); 100% in experiment [1] (setting [7]); 70% in experiment [2] (setting [5]); 80% in experiment [2] (setting [7]); 70% in experiment [3] (setting [5]); 0% in experiment [3] (setting [7]).
With `Cc1ccc(Oc2ncc(Cl)cn2)c(-c2ccnc(C(F)(F)F)c2)c1` [Compound 24, 5-chloro-2-[4-methyl-2-[2-(trifluoromethyl)-4-pyridinyl]phenoxy]pyrimidine], the pest or weed control at 125 g/ha in experiment [1] (setting [4]) was 80%; in experiment [1] (setting [6]) it was 100%; in experiment [2] (setting [4]) it was 40%; in experiment [2] (setting [6]), 0%; in experiment [3] (setting [4]), 50%; in experiment [3] (setting [6]), 0%. Further, the pest or weed control at 500 g/ha in experiment [1] (setting [5]) is 90%; in experiment [1] (setting [7]), 100%; in experiment [2] (setting [5]) it was 70%; in experiment [2] (setting [7]), 0%; in experiment [3] (setting [5]), 100%; in experiment [3] (setting [7]), 0%.
As for `FC(F)(F)c1ccnc(-c2ccccc2Oc2ncc(Cl)cn2)c1` [Compound 25, 5-chloro-2-[2-[4-(trifluoromethyl)-2-pyridinyl]phenoxy]pyrimidine], the pest or weed control at 125 g/ha amounted to 10% in experiment [1] (setting [4]); 50% in experiment [1] (setting [6]); 20% in experiment [2] (setting [4]); 10% in experiment [2] (setting [6]); 10% in experiment [3] (setting [4]); 0% in experiment [3] (setting [6]). The pest or weed control at 500 g/ha worked out at 50% in experiment [1] (setting [5]); 100% in experiment [1] (setting [6]); 80% in experiment [2] (setting [5]); 100% in experiment [2] (setting [6]); 70% in experiment [3] (setting [5]); 10% in experiment [3] (setting [6]).
On to `FC(F)(F)c1ccc(-c2ccccc2Oc2ncc(Cl)cn2)nc1` [Compound 27, 5-chloro-2-[2-[5-(trifluoromethyl)-2-pyridinyl]phenoxy]pyrimidine], for which the pest or weed control at 125 g/ha in experiment [1] (setting [4]) is 20%; in experiment [1] (setting [6]), 80%; in experiment [2] (setting [4]) it was 70%; in experiment [2] (setting [6]) it was 20%; in experiment [3] (setting [4]), 10%; in experiment [3] (setting [6]) it was 0%. Also, the pest or weed control at 500 g/ha in experiment [1] (setting [5]) was determined as 90%; in experiment [1] (setting [6]) it was 100%; in experiment [2] (setting [5]), 100%; in experiment [2] (setting [6]), 60%; in experiment [3] (setting [5]) it was 50%; in experiment [3] (setting [6]), 0%.
`FCc1cc(-c2ccccc2Oc2ncc(Cl)cn2)no1` [Compound 32, 5-chloro-2-[2-[5-(fluoromethyl)-3-isoxazolyl]phenoxy]pyrimidine]: the pest or weed control at 125 g/ha in experiment [1] (setting [4]) stood at 60%; in experiment [1] (setting [6]), 100%; in experiment [2] (setting [4]), 90%; in experiment [2] (setting [6]), 90%; in experiment [3] (setting [4]), 70%; in experiment [3] (setting [6]), 0%. In addition, the pest or weed control at 500 g/ha in experiment [1] (setting [5]) is 90%; in experiment [1] (setting [6]), 100%; in experiment [2] (setting [5]), 100%; in experiment [2] (setting [6]) it was 100%; in experiment [3] (setting [5]), 90%; in experiment [3] (setting [6]), 30%.
`FC(F)(F)Oc1ccc(-c2ccccc2Oc2ncc(Cl)cn2)cc1` [Compound 42, 5-chloro-2-[[4′-(trifluoromethoxy)[1,1′-biphenyl]-2-yl]oxy]pyrimidine]: the pest or weed control at 125 g/ha in experiment [1] (setting [4]) amounted to 30%; in experiment [1] (setting [6]) it was 50%; in experiment [2] (setting [4]), 100%; in experiment [2] (setting [6]), 50%; in experiment [3] (setting [4]), 20%; in experiment [3] (setting [6]) it was 0%. The pest or weed control at 500 g/ha in experiment [1] (setting [5]) came out at 50%; in experiment [1] (setting [6]), 90%; in experiment [2] (setting [5]), 100%; in experiment [2] (setting [6]), 70%; in experiment [3] (setting [5]), 60%; in experiment [3] (setting [6]), 0%.

Values taken from patent US10131652B2, “Pyrimidinyloxy benzene derivatives as herbicides” (E. I. DU PONT DE NEMOURS AND COMPANY, priority 2014, dated 2018).
